Test results reported in ChEMBL document CHEMBL5584328, “Integrating computational and experimental chemical biology revealed variable anticancer activities of phosphodiesterase isoenzyme 5 inhibitors (PDE5i) in lung cancer” (RSC Med Chem, 2024).
Values belong to the compound of their own block, whether it stands above or below them. Active and inactive are the calls of the source. No cut-off for these calls is given here.

Assays:
[1] = system: A549; experiment: Inhibition of colony formation in human A549 cells assessed as reduction in size of colonies at 85 to 170 uM measured after 48 hrs by colony formation assay; assay type: functional, cell-based; details: dose 85-170 µM
[2] = system: NCI-H1299; experiment: Antiproliferative activity against human NCI-H1299 cells measured after 72 hrs by MTT assay; assay type: functional, cell-based; details: for IC50: NCI-H1299, 72 h
[3] = system: NCI-H1299; experiment: Antimigratory activity against human NCI-H1299 cells assessed as reduction in wound closure measured after 24 hrs by wound healing assay; assay type: functional, cell-based
[4] = system: NCI-H1299; experiment: Antiproliferative activity against human NCI-H1299 cells by MTT assay; assay type: functional, cell-based; details: time 24-72 hrs, TDE = time-dependent effect
[5] = system: NCI-H661; experiment: Antiproliferative activity against human NCI-H661 cells by MTT assay; assay type: functional, cell-based; details: time 24-72 hrs, TDE = time-dependent effect
[6] = system: NCI-H1299; experiment: Potentiation of cisplatin-induced cytotoxicity against human NCI-H1299 cells assessed as fold reduction in cisplatin IC50 at 1:9 ratio of cisplatin to compound measured after 48 hrs by MTT assay relative to cisplatin alone; assay type: functional
[7] = system: A549; experiment: Cell cycle arrest in human A549 cells assessed as increase in cell population at G0/G1 phase at 85 uM measured after 48 hrs by propidium iodide staining based flow cytometry; assay type: functional
[8] = system: NCI-H661; experiment: Antiproliferative activity against human NCI-H661 cells measured after 24 hrs by MTT assay; assay type: functional, cell-based; details: for IC50: NCI-H661, 24 h
[9] = system: NCI-H661; experiment: Potentiation of raloxifene-induced cytotoxicity against human NCI-H661 cells assessed as combination index at 1:5 ratio of raloxifene to compound measured after 48 hrs by MTT assay; assay type: functional
[10] = system: NCI-H661; experiment: Potentiation of cisplatin-induced cytotoxicity against human NCI-H661 cells assessed as combination index at 1:9 ratio of cisplatin to compound measured after 48 hrs by MTT assay; assay type: functional
[11] = system: NCI-H661; experiment: Antiproliferative activity against human NCI-H661 cells measured after 72 hrs by MTT assay; assay type: functional, cell-based; details: for IC50: NCI-H661, 72 h
[12] = system: A549; experiment: Potentiation of cisplatin-induced cytotoxicity against human A549 cells assessed as fold reduction in cisplatin IC50 at 1:7 ratio of cisplatin to compound measured after 48 hrs by MTT assay relative to cisplatin alone; assay type: functional
[13] = system: NCI-H1299; experiment: Potentiation of raloxifene-induced cytotoxicity against human NCI-H1299 cells assessed as combination index at 1:5 ratio of raloxifene to compound measured after 48 hrs by MTT assay; assay type: functional
[14] = system: A549; experiment: Antiproliferative activity against human A549 cells by MTT assay; assay type: functional, cell-based; details: time 24-72 hrs, TDE = time-dependent effect
[15] = system: NCI-H1299; experiment: Antiproliferative activity against human NCI-H1299 cells measured after 48 hrs by MTT assay; assay type: functional, cell-based; details: for IC50: NCI-H1299, 48 h
[16] = system: A549; experiment: Reduction in PDE5 gene expression in human A549 cells at 0.1 IC50 measured after 48 hrs by qRT-PCR analysis; assay type: functional, cell-based
[17] = system: A549; experiment: Antiproliferative activity against human A549 cells measured after 24 hrs by MTT assay; assay type: functional, cell-based; details: for IC50: A549, 24 h
[18] = system: A549; experiment: Induction of apoptosis in human A549 cells assessed as increase in apoptotic cells at 340 uM measured after 48 hrs by Annexin V-FITC/PI staining based flow cytometry relative to control; assay type: functional
[19] = system: A549; experiment: Inhibition of colony formation in human A549 cells assessed as reduction in number of colonies at 85 to 170 uM measured after 48 hrs by colony formation assay; assay type: functional, cell-based; details: dose 85-170 µM
[20] = system: A549; experiment: Reduction in PDE5 protein expression in human A549 cells at 0.25 to 0.5 IC50 measured after 48 hrs by Western blot analysis; assay type: functional, cell-based
[21] = system: A549; experiment: Potentiation of cisplatin-induced cytotoxicity against human A549 cells assessed as combination index at 1:7 ratio of cisplatin to compound measured after 48 hrs by MTT assay; assay type: functional
[22] = system: A549; experiment: Reduction in Bcl-2 gene expression in human A549 cells at 0.1 IC50 measured after 48 hrs by qRT-PCR analysis; assay type: functional, cell-based
[23] = system: NCI-H1299; experiment: Potentiation of raloxifene-induced cytotoxicity against human NCI-H1299 cells assessed as fold reduction in raloxifene IC50 at 1:5 ratio of raloxifene to compound measured after 48 hrs by MTT assay relative to raloxifene alone; assay type: functional
[24] = system: NCI-H1299; experiment: Antiproliferative activity against human NCI-H1299 cells measured after 24 hrs by MTT assay; assay type: functional, cell-based; details: for IC50: NCI-H1299, 24 h
[25] = system: NCI-H1299; experiment: Potentiation of cisplatin-induced cytotoxicity against human NCI-H1299 cells assessed as combination index at 1:9 ratio of cisplatin to compound measured after 48 hrs by MTT assay; assay type: functional
[26] = system: NCI-H661; experiment: Potentiation of raloxifene-induced cytotoxicity against human NCI-H661 cells assessed as fold reduction in raloxifene IC50 at 1:5 ratio of raloxifene to compound measured after 48 hrs by MTT assay relative to raloxifene alone; assay type: functional
[27] = system: NCI-H661; experiment: Potentiation of cisplatin-induced cytotoxicity against human NCI-H661 cells assessed as fold reduction in cisplatin IC50 at 1:9 ratio of cisplatin to compound measured after 48 hrs by MTT assay relative to cisplatin alone; assay type: functional
[28] = system: A549; experiment: Potentiation of raloxifene-induced cytotoxicity against human A549 cells assessed as combination index at 1:4 ratio of raloxifene to compound measured after 48 hrs by MTT assay; assay type: functional
[29] = system: A549; experiment: Antiproliferative activity against human A549 cells measured after 48 hrs by MTT assay; assay type: functional, cell-based; details: for IC50: A549, 48 h
[30] = system: A549; experiment: Antiproliferative activity against human A549 cells measured after 72 hrs by MTT assay; assay type: functional, cell-based; details: for IC50: A549, 72 h
[31] = system: A549; experiment: Potentiation of raloxifene-induced cytotoxicity against human A549 cells assessed as fold reduction in raloxifene IC50 at 1:4 ratio of raloxifene to compound measured after 48 hrs by MTT assay relative to raloxifene alone; assay type: functional
[32] = system: NCI-H661; experiment: Antiproliferative activity against human NCI-H661 cells measured after 48 hrs by MTT assay; assay type: functional, cell-based; details: for IC50: NCI-H661, 48 h
[33] = system: NCI-H1299; experiment: Potentiation of cisplatin-induced cytotoxicity against human NCI-H1299 cells assessed as combination index at 1:35 ratio of cisplatin to compound measured after 48 hrs by MTT assay; assay type: functional
[34] = system: A549; experiment: Potentiation of raloxifene-induced cytotoxicity against human A549 cells assessed as fold reduction in raloxifene IC50 at 1:2 ratio of raloxifene to compound measured after 48 hrs by MTT assay relative to raloxifene alone; assay type: functional
[35] = system: A549; experiment: Inhibition of colony formation in human A549 cells assessed as reduction in number of colonies at 52.5 to 105 uM measured after 48 hrs by colony formation assay; assay type: functional, cell-based; details: dose 52.5-105 µM
[36] = system: NCI-H1299; experiment: Potentiation of cisplatin-induced cytotoxicity against human NCI-H1299 cells assessed as fold reduction in cisplatin IC50 at 1:35 ratio of cisplatin to compound measured after 48 hrs by MTT assay relative to cisplatin alone; assay type: functional
[37] = system: A549; experiment: Cell cycle arrest in human A549 cells assessed as increase in cell population at G2 phase at 52.5 uM measured after 48 hrs by propidium iodide staining based flow cytometry; assay type: functional
[38] = system: NCI-H661; experiment: Potentiation of raloxifene-induced cytotoxicity against human NCI-H661 cells assessed as combination index at 1:7 ratio of raloxifene to compound measured after 48 hrs by MTT assay; assay type: functional
[39] = system: A549; experiment: Potentiation of cisplatin-induced cytotoxicity against human A549 cells assessed as combination index at 1:4 ratio of cisplatin to compound measured after 48 hrs by MTT assay; assay type: functional
[40] = system: A549; experiment: Potentiation of raloxifene-induced cytotoxicity against human A549 cells assessed as combination index at 1:2 ratio of raloxifene to compound measured after 48 hrs by MTT assay; assay type: functional
[41] = system: NCI-H661; experiment: Potentiation of cisplatin-induced cytotoxicity against human NCI-H661 cells assessed as fold reduction in cisplatin IC50 at 1:14 ratio of cisplatin to compound measured after 48 hrs by MTT assay relative to cisplatin alone; assay type: functional
[42] = system: NCI-H1299; experiment: Potentiation of raloxifene-induced cytotoxicity against human NCI-H1299 cells assessed as combination index at 1:20 ratio of raloxifene to compound measured after 48 hrs by MTT assay; assay type: functional
[43] = system: NCI-H661; experiment: Potentiation of raloxifene-induced cytotoxicity against human NCI-H661 cells assessed as fold reduction in raloxifene IC50 at 1:7 ratio of raloxifene to compound measured after 48 hrs by MTT assay relative to raloxifene alone; assay type: functional
[44] = system: A549; experiment: Inhibition of colony formation in human A549 cells assessed as reduction in size of colonies at 52.5 to 105 uM measured after 48 hrs by colony formation assay; assay type: functional, cell-based; details: dose 52.5-105 µM
[45] = system: A549; experiment: Induction of apoptosis in human A549 cells assessed as increase in apoptotic cells at 210 uM measured after 48 hrs by Annexin V-FITC/PI staining based flow cytometry relative to control; assay type: functional
[46] = system: A549; experiment: Potentiation of cisplatin-induced cytotoxicity against human A549 cells assessed as fold reduction in cisplatin IC50 at 1:4 ratio of cisplatin to compound measured after 48 hrs by MTT assay relative to cisplatin alone; assay type: functional
[47] = system: NCI-H661; experiment: Potentiation of cisplatin-induced cytotoxicity against human NCI-H661 cells assessed as combination index at 1:14 ratio of cisplatin to compound measured after 48 hrs by MTT assay; assay type: functional
[48] = system: NCI-H1299; experiment: Potentiation of raloxifene-induced cytotoxicity against human NCI-H1299 cells assessed as fold reduction in raloxifene IC50 at 1:20 ratio of raloxifene to compound measured after 48 hrs by MTT assay relative to raloxifene alone; assay type: functional

IC50 [2]: 169 µM
IC50 [8]: 264 µM
IC50 [11]: 78.5 µM
IC50 [15]: 184 µM
IC50 [17]: 127 µM
IC50 [24]: 162 µM
IC50 [29]: 170 µM
IC50 [30]: 131 µM
IC50 [32]: 186 µM
SMILES: COc1ccc(CNc2nc(N3CCC[C@H]3CO)ncc2C(=O)NCc2ncccn2)cc1Cl [AVANAFIL]
inhibition [1]: Active
Activity [2]: Dose-Dependent Effect
Activity [3]: Dose-Dependent Effect
Activity [4]: Tde
Activity [5]: Tde
fold change (FC) [6]: 2.8
Activity [7]: Active
Activity [8]: Dose-Dependent Effect
CI [9]: 0.9
CI [10]: 0.89
Activity [11]: Dose-Dependent Effect
fold change (FC) [12]: 2.1
CI [13]: 0.73
Activity [14]: Tde
Activity [15]: Dose-Dependent Effect
Activity [16]: Active
Activity [17]: Dose-Dependent Effect
Activity [18]: 44%
inhibition [19]: Active
Activity [20]: Dose-Dependent Effect
CI [21]: 0.95
Activity [22]: Active
fold change (FC) [23]: 3
Activity [24]: Dose-Dependent Effect
CI [25]: 0.69
fold change (FC) [26]: 2.7
fold change (FC) [27]: 2.4
CI [28]: 0.99
Activity [29]: Dose-Dependent Effect
Activity [30]: Dose-Dependent Effect
fold change (FC) [31]: 1.9
Activity [32]: Dose-Dependent Effect

IC50 [15]: > 500 µM
IC50 [29]: > 500 µM
IC50 [32]: > 500 µM
SMILES: CCCc1nn(C)c2c(=O)[nH]c(-c3cc(S(=O)(=O)N4CCN(C)CC4)ccc3OCC)nc12 [SILDENAFIL]

IC50 [2]: 127 µM
IC50 [8]: 876 µM
IC50 [11]: 243 µM
IC50 [15]: 274 µM
IC50 [17]: 354 µM
IC50 [24]: 359 µM
IC50 [29]: 106 µM
IC50 [30]: 73.9 µM
IC50 [32]: 281 µM
SMILES: CN1CC(=O)N2[C@H](c3ccc4c(c3)OCO4)c3[nH]c4ccccc4c3C[C@@H]2C1=O [TADALAFIL]
Activity [2]: Dose-Dependent Effect
Activity [3]: Dose-Dependent Effect
CI [33]: 0.78
Activity [4]: Tde
fold change (FC) [34]: 1.9
Activity [5]: Tde
Activity [8]: Dose-Dependent Effect
inhibition [35]: Active
Activity [11]: Dose-Dependent Effect
Activity [14]: Tde
fold change (FC) [36]: 2.6
Activity [15]: Dose-Dependent Effect
Activity [16]: Active
Activity [37]: Active
CI [38]: 0.89
Activity [17]: Dose-Dependent Effect
CI [39]: 0.92
Activity [20]: Dose-Dependent Effect
CI [40]: 0.98
fold change (FC) [41]: 2
CI [42]: 0.44
fold change (FC) [43]: 2.1
inhibition [44]: Active
Activity [45]: 22.2%
fold change (FC) [46]: 2.1
Activity [22]: Active
Activity [24]: Dose-Dependent Effect
CI [47]: 0.89
Activity [29]: Dose-Dependent Effect
Activity [30]: Dose-Dependent Effect
Activity [32]: Dose-Dependent Effect
fold change (FC) [48]: 5.2

IC50 [15]: 45 µM
IC50 [29]: 45.6 µM
IC50 [32]: 44.5 µM
SMILES: O=C(c1ccc(OCCN2CCCCC2)cc1)c1c(-c2ccc(O)cc2)sc2cc(O)ccc12 [RALOXIFENE]
